Series [1] has as its system exon 2 of the human myostatin gene (huMSTN). Nature of the series: Exon 2 skipping by RT-PCR in nucleofected primary human myoblasts. In kind it is cell-based. The following applies: first series (FIG. 3); primary human myoblasts nucleofected with PMO at 10, 3, 1, 0.3 μM, overnight; concentration inducing 50% exon skipping. Here is the method: (§1) In vitro experiments were performed to investigate the ability of antisense oligonucleotides designed and prepared as described above to decrease the expression of exon 2 containing myostatin pre-mRNA. Both human rhabdomyosarcoma cells (RD cells; ATCC CCL-136) and primary human myoblasts were used in the experiments as noted. RD cells or primary human skeletal myoblasts were nucleofected with PMOs at 10, 3, 1 and 0.3 μM in SG or P3 nucleofector solution, respectively, and incubated overnight at 37° C. with 5% CO2. Total RNA was isolated from the cells and RT-PCR was performed using primers Myostatin EX1 Fwd (5′ […] SEQ ID NO: 48) and Myostatin EX3 Rev (5′ […] SEQ ID NO: 49). Amplified samples were analyzed using the LabChip Caliper to determine percent exon 2 skipping. EC50 values were determined using non-linear regression analysis in GraphPad Prism. EC50 values represent the concentration at which the test PMO induces 50% exon skipping.

Series [2] has the same test system. Nature of the series: Exon 2 skipping by RT-PCR in nucleofected human rhabdomyosarcoma (RD) cells. Format: cell-based. The following applies: second series (FIG. 4); RD cells nucleofected with PMO at 10, 3, 1, 0.3 μM, overnight; concentration inducing 50% exon skipping; * = ambiguous fit on non-linear regression. As to the method: as §1

From patent US11015200B2, “Antisense-induced exon exclusion in myostatin” (Sarepta Therapeutics, Inc., priority 2015, dated 2021) come the findings set out here.

{TEG} = triethylene glycol spacer

Consider “muhuMSTN-SD2(+18 − 07): PMO, 5′ TEG, 3′ H; targeting sequence CACTTACCAGCCCATCTTCTCCTGG (all phosphorodiamidate morpholino (PMO), 5' {TEG})”, for which the 50% effective concentration (EC50) came to 3880 nM in series [1] and 1290 nM in series [2].

Broadly, the EC50 is the concentration at which the effect is half-maximal.
